This passage reports % of control, % of inhibition and % of engagement results from ChEMBL document CHEMBL5465560, “Selectivity Literature for EUbOPEN Chemogenomic Library” (2024).

In test [1] the target is Cyclin-dependent kinase 5 (Homo sapiens, UniProt Q00535). In words: Selectivity interaction (KinomeScan (DiscoverX)) EUB0000595a CDK5. Particulars: at 10 µM.
The target of test [2] is T1, Mitogen-activated protein kinase kinase kinase 6 (Homo sapiens) (UniProt O95382).
T1 sequence (whole entry): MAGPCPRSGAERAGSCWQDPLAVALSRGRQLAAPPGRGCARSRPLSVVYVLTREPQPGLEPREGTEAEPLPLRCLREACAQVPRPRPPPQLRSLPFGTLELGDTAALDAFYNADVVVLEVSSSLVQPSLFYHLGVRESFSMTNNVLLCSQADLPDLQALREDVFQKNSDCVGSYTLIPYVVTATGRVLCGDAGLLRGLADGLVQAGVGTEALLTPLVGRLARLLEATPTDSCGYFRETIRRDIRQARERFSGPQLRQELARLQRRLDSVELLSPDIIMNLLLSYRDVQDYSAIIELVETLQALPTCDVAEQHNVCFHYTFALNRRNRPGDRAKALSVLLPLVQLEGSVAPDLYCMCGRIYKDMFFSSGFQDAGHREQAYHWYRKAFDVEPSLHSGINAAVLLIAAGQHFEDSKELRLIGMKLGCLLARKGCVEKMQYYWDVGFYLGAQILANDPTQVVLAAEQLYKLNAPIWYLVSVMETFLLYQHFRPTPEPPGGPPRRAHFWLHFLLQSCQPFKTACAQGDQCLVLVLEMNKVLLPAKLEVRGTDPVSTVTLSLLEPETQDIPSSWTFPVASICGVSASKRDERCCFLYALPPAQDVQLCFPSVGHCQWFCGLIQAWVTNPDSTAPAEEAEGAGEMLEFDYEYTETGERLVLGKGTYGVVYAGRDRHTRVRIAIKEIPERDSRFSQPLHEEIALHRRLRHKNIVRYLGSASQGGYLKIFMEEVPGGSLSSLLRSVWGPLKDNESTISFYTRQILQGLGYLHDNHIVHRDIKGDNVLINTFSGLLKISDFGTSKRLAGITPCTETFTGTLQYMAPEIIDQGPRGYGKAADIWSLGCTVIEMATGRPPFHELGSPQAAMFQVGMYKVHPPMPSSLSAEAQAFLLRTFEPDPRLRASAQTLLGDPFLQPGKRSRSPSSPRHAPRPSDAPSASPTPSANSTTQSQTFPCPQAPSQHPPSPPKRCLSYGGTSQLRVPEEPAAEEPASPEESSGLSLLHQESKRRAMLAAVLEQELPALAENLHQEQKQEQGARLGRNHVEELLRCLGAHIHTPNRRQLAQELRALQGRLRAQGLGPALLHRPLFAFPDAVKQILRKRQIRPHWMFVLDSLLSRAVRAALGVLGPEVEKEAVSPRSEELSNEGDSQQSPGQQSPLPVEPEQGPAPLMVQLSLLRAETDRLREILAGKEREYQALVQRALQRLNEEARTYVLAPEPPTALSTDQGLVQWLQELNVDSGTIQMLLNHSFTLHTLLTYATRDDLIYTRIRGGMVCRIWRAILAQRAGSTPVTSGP
In words: Selectivity interaction (ActivX KiNativ screen (kinase selectivity in THP-1 cell lysates)) EUB0000639a MAP3K6. The class given is subcellular. Particulars: lysate, at 5 µM.

The target in test [3] is T2, Interleukin-1 receptor-associated kinase 4 (Homo sapiens) (UniProt Q9NWZ3).
T2 sequence (whole entry): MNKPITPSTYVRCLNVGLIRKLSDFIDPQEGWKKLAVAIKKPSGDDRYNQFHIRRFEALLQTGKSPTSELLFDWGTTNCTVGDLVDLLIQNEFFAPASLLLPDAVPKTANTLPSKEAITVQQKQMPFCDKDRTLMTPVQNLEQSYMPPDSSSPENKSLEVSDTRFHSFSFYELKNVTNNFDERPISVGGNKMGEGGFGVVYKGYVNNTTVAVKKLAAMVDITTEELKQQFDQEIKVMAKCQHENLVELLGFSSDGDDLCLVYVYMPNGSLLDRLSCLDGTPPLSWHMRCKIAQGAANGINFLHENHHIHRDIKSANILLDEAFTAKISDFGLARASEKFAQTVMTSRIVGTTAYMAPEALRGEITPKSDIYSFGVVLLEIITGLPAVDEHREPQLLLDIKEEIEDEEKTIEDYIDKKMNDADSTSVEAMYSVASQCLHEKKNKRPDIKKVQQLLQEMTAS
In words: Selectivity interaction (KinomeScan (DiscoverX)) EUB0000092b IRAK4. The following applies: at 10 µM.

In test [4] the target is T3, Serine/threonine-protein kinase D2 (Homo sapiens) (UniProt Q9BZL6).
T3 sequence (whole entry): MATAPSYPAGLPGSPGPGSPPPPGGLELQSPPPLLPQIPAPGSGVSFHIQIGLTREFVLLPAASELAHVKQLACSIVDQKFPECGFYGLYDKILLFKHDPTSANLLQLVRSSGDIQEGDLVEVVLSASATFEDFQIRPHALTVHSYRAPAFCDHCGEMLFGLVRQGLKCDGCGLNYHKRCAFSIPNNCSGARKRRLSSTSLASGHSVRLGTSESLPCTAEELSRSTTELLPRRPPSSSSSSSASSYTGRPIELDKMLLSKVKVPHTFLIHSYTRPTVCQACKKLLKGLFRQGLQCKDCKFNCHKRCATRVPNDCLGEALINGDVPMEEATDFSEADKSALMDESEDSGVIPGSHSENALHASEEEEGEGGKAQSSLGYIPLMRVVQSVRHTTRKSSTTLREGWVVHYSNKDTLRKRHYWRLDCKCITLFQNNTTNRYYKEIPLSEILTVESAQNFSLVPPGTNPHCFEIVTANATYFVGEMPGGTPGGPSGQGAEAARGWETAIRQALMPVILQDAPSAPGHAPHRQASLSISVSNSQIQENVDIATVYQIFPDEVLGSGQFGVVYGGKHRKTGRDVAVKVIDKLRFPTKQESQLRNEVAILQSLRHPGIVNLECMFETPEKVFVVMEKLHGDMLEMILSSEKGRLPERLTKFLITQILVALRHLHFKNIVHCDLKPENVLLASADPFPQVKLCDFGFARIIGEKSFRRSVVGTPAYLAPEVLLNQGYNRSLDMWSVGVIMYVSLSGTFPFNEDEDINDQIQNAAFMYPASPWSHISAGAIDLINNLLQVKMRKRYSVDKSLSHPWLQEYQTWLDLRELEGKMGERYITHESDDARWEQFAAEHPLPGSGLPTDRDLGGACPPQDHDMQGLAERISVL
In words: Selectivity interaction (KinomeScan (DiscoverX)) EUB0000092b PRKD2. Particulars: at 10 µM.

For test [5], the system named is Epidermal growth factor receptor (Homo sapiens), P00533 [UNDEFINED MUTATION]. The experiment in a line: Selectivity interaction (KinomeScan (DiscoverX)) EUB0001079a EGFR. The following applies: at 1 µM.
The target of test [6] is Calcium/calmodulin-dependent protein kinase type II subunit delta (Homo sapiens) (UniProt Q13557). The experiment in a line: Selectivity interaction (Kinase panel (KiNativ target engagement assay in Jurkat cells)) EUB0001635a CAMK2D. The test is classed as cell-based. Particulars: Selectivity number of off-targets 0.0, Selectivity number of targets 233.0, Source Knowledge https://www.sciencedirect.com/science/article/pii/S2451945619300674?via%3Dihub, at 1 µM.
Calcium/calmodulin-dependent protein kinase type II subunit delta (Homo sapiens), sequence (Q13557 whole entry): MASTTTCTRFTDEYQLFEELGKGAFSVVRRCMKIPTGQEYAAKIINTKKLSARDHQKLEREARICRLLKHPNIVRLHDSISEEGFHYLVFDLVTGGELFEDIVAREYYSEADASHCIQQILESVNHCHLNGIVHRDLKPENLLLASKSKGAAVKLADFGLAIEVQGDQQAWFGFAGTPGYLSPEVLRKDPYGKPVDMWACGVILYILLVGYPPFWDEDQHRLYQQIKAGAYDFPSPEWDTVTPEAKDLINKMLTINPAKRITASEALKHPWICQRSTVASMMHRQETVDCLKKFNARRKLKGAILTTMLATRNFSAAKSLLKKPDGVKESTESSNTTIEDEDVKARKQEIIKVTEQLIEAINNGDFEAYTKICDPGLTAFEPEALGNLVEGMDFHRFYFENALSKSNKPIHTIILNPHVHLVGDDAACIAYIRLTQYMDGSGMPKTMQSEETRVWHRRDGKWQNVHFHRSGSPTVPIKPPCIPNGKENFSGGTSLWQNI

Cyclin-dependent kinase 5, sequence (Q00535 whole entry, looked up): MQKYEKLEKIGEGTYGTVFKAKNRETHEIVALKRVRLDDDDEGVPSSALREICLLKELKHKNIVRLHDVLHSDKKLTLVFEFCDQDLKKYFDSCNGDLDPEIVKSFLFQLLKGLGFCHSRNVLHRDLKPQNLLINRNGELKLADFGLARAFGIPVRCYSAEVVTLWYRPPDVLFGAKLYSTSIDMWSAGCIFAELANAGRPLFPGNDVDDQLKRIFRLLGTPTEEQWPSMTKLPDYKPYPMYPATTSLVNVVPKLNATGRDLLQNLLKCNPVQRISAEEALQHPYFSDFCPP
Epidermal growth factor receptor (Homo sapiens), P00533 [UNDEFINED MUTATION], sequence (P00533 whole entry, looked up, stated change not applied): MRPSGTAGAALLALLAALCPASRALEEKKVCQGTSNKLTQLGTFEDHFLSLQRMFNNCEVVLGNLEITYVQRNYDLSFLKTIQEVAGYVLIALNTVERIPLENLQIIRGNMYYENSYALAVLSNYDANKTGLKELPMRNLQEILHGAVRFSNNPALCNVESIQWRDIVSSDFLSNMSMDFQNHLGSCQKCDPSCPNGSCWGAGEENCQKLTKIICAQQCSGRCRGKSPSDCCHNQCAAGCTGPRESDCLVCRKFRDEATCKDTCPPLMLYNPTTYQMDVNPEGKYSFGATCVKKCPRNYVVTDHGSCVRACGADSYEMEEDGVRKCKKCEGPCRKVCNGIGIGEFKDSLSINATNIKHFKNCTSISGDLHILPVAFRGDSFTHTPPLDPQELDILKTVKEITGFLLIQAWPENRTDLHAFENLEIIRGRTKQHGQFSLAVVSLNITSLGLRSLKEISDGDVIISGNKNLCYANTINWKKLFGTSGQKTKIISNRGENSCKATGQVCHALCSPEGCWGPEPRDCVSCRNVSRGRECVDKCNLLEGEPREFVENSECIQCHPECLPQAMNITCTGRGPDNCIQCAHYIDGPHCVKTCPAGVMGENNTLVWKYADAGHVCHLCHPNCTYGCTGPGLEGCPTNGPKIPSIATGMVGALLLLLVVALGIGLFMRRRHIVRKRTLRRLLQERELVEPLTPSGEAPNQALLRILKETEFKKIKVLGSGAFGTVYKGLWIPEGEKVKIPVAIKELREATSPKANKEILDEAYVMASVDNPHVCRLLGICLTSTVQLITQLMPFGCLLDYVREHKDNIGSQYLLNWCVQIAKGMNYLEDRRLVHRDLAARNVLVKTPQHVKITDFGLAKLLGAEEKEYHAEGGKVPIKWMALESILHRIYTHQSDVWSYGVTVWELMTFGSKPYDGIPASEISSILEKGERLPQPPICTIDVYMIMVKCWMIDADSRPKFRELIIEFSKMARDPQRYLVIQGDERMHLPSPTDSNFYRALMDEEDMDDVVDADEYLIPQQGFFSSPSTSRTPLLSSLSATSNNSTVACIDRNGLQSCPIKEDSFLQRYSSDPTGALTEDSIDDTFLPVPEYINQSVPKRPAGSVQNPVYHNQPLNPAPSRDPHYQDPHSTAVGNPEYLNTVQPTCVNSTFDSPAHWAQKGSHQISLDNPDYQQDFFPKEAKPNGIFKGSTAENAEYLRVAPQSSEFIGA

The compound `COCC(=O)NC/C=C/c1ccc2ncnc(Nc3ccc(Oc4ccc(C)nc4)c(C)c3)c2c1` [CP-724714] showed a % of control in test [1] of 100%. Turning to `CC[C@@H]1[C@H](F)C(=O)N[C@@H]1COc1nccc2cc(C(N)=O)c(OC)cc12` [ZIMLOVISERTIB], the % of inhibition in test [2] was -27%. As for `CCC(=O)N1CCN(c2ccc(-n3c(=O)ccc4cnc5ccc(-c6cnc7ccccc7c6)cc5c43)cc2C(F)(F)F)CC1`, the % of control was 90% in test [3] and 100% in test [4].

As for `Nc1cnc(N2CCc3cc(S(=O)(=O)Nc4c(F)cc(Cl)cc4F)cc(N4CCCC4=O)c32)nc1` [TP-020n], the % of control in test [5] amounted to 71%. For the compound `C=CC(=O)Nc1ccc(C(=O)Nc2[nH]nc3c2CN(C(=O)N[C@H](CN(C)C)c2ccccc2)C3(C)C)cc1`, the % of engagement in test [6] was determined as 34.1%.
